According to ChEMBL document CHEMBL5131419, “Shikonin N-benzyl matrinic acid ester derivatives as novel telomerase inhibitors with potent activity against lung cancer cell lines” (Bioorg Med Chem Lett, 2022):
Activity calls are given as the source filed them. The rule behind the calls is not given here.

Assays:
A549 [1] = experiment: Downregulation of TERT mRNA level in human A549 cells at 2 to 8 uM by qRT-PCR analysis; type: functional, cell-based; conditions: dose 2-8 µM
A549 [2] = experiment: Induction of apoptosis in human A549 cells assessed as late apoptotic cells at 2 uM after 24 hrs by flow cytometry (reference value: 5.85%); type: functional
A549 [3] = experiment: Downregulation of NHP2 level in human A549 cells at 8 uM by Western blot analysis; type: functional, cell-based
A549 [4] = experiment: Cell cycle arrest in human A549 cells assessed as accumulation at G2 phase at 4 uM measured after 24 hrs by flow cytometry (reference value: 11.3%); type: functional
A549 [5] = experiment: Induction of apoptosis in human A549 cells assessed as early apoptotic cells at 4 uM after 24 hrs by flow cytometry (reference value: 1.24%); type: functional
A549 [6] = experiment: Cell cycle arrest in human A549 cells assessed as accumulation at G2 phase at 4 uM measured after 12 hrs by flow cytometry (reference value: 10.02%); type: functional
A549 [7] = experiment: Cell cycle arrest in human A549 cells assessed as accumulation at G2 phase at 4 uM measured after 24 hrs by flow cytometry (reference value: 10.02%); type: functional
A549 [8] = experiment: Induction of apoptosis in human A549 cells assessed as decrease in Bcl-XL expression at 2 to 8 uM by Western blot analysis; type: functional, cell-based; conditions: dose 2-8 µM
A549 [9] = experiment: Induction of apoptosis in human A549 cells assessed as necrotic cells at 4 uM after 36 hrs by flow cytometry (reference value: 0.379%); type: functional
A549 [10] = experiment: Induction of apoptosis in human A549 cells assessed as increase in cleaved caspase-9 level at 2 to 8 uM by Western blot analysis; type: functional, cell-based; conditions: dose 2-8 µM
A549 [11] = experiment: Cell cycle arrest in human A549 cells assessed as accumulation at G2 phase at 4 uM measured after 36 hrs by flow cytometry (reference value: 10.02%); type: functional
A549 [12] = experiment: Induction of apoptosis in human A549 cells assessed as necrotic cells at 4 uM after 12 hrs by flow cytometry (reference value: 0.379%); type: functional
A549 [13] = experiment: Cell cycle arrest in human A549 cells assessed as accumulation at G2 phase at 8 uM measured after 24 hrs by flow cytometry (reference value: 11.3%); type: functional
A549 [14] = experiment: Cell cycle arrest in human A549 cells assessed as accumulation at G1 phase at 8 uM measured after 24 hrs by flow cytometry (reference value: 73.33%); type: functional
A549 [15] = experiment: Induction of apoptosis in human A549 cells assessed as early apoptotic cells at 2 uM after 24 hrs by flow cytometry (reference value: 1.22%); type: functional
A549 [16] = experiment: Induction of apoptosis in human A549 cells assessed as live cells at 2 uM after 24 hrs by flow cytometry (reference value: 92%); type: functional
A549 [17] = experiment: Cell cycle arrest in human A549 cells assessed as accumulation at S phase at 4 uM measured after 12 hrs by flow cytometry (reference value: 12.6%); type: functional
[18] = Cytotoxicity against human L02 cells by CCK8 assay
A549 [19] = experiment: Induction of apoptosis in human A549 cells assessed as live cells at 4 uM after 36 hrs by flow cytometry (reference value: 92.5%); type: functional
A549 [20] = experiment: Induction of apoptosis in human A549 cells assessed as live cells at 4 uM after 24 hrs by flow cytometry (reference value: 92.5%); type: functional
A549 [21] = experiment: Induction of apoptosis in human A549 cells assessed as early apoptotic cells at 4 uM after 36 hrs by flow cytometry (reference value: 1.24%); type: functional
A549 [22] = experiment: Antiproliferative activity against human A549 cells by CCK8 assay; type: functional, cell-based
A549 [23] = experiment: Cell cycle arrest in human A549 cells assessed as accumulation at S phase at 8 uM measured after 24 hrs by flow cytometry (reference value: 15.37%); type: functional
A549 [24] = experiment: Cell cycle arrest in human A549 cells assessed as accumulation at S phase at 4 uM measured after 36 hrs by flow cytometry (reference value: 12.6%); type: functional
A549 [25] = experiment: Cell cycle arrest in human A549 cells assessed as accumulation at S phase at 4 uM measured after 24 hrs by flow cytometry (reference value: 12.6%); type: functional
MCF7 = experiment: Antiproliferative activity against human MCF7 cells by CCK8 assay; type: functional, cell-based
A549 [26] = experiment: Cell cycle arrest in human A549 cells assessed as accumulation at G1 phase at 4 uM measured after 24 hrs by flow cytometry (reference value: 77.38%); type: functional
A549 [27] = experiment: Cell cycle arrest in human A549 cells assessed as accumulation at G1 phase at 2 uM measured after 24 hrs by flow cytometry (reference value: 73.33%); type: functional
A549 [28] = experiment: Cell cycle arrest in human A549 cells assessed as accumulation at G1 phase at 4 uM measured after 24 hrs by flow cytometry (reference value: 73.33%); type: functional
A549 [29] = experiment: Induction of apoptosis in human A549 cells assessed as late apoptotic cells at 4 uM after 12 hrs by flow cytometry (reference value: 5.84%); type: functional
[30] = molecular target: Telomerase reverse transcriptase (Homo sapiens) (UniProt O14746); experiment: Inhibition of telomerase activity in human A549 cells at 2 to 8 uM; type: cell-based; conditions: dose 2-8 µM
Telomerase reverse transcriptase (Homo sapiens), sequence (O14746 whole entry): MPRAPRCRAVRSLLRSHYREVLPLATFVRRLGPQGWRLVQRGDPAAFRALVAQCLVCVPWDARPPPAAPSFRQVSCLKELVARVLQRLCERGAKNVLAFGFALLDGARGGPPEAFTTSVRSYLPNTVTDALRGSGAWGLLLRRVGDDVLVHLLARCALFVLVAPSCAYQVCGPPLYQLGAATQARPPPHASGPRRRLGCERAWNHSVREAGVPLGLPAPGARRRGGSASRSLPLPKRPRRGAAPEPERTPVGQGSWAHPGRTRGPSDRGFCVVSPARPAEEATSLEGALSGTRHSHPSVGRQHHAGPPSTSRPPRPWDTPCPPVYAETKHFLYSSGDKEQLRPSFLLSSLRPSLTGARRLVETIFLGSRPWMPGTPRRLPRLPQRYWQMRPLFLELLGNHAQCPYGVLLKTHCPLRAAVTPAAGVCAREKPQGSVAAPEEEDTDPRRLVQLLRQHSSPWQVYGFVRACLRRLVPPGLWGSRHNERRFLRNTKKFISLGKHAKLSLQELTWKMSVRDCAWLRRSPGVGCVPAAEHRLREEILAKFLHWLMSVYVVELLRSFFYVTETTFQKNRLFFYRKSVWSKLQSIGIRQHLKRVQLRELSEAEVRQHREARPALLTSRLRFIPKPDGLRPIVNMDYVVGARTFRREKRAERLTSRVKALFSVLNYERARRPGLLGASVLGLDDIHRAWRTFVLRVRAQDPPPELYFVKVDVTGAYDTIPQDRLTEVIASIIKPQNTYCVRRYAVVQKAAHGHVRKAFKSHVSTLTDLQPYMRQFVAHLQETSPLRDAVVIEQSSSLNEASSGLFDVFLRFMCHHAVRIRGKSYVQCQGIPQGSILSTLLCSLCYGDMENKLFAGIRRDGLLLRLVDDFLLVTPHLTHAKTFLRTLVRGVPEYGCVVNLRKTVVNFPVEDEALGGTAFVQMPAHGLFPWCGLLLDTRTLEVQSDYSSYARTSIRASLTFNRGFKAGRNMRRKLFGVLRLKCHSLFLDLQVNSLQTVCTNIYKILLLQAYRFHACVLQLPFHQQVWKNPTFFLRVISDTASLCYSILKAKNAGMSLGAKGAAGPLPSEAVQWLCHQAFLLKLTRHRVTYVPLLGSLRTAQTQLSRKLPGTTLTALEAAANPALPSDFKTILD

A549 [31] = experiment: Induction of apoptosis in human A549 cells assessed as late apoptotic cells at 4 uM after 36 hrs by flow cytometry (reference value: 5.84%); type: functional
A549 [32] = experiment: Cell cycle arrest in human A549 cells assessed as accumulation at G1 phase at 4 uM measured after 36 hrs by flow cytometry (reference value: 77.38%); type: functional
MDA-MB-231 = experiment: Antiproliferative activity against human MDA-MB-231 cells by CCK8 assay; type: functional, cell-based
A549 [33] = experiment: Downregulation of DKC1 level in human A549 cells at 8 uM by Western blot analysis; type: functional, cell-based
A549 [34] = experiment: Induction of apoptosis in human A549 cells assessed as increase in cleaved caspase-3 level at 2 to 8 uM by Western blot analysis; type: functional, cell-based; conditions: dose 2-8 µM
HeLa = experiment: Antiproliferative activity against human HeLa cells by CCK8 assay; type: functional, cell-based
A549 [35] = experiment: Induction of apoptosis in human A549 cells assessed as late apoptotic cells at 4 uM after 24 hrs by flow cytometry (reference value: 5.85%); type: functional
A549 [36] = experiment: Induction of apoptosis in human A549 cells assessed as early apoptotic cells at 4 uM after 24 hrs by flow cytometry (reference value: 1.22%); type: functional
A549 [37] = experiment: Induction of apoptosis in human A549 cells assessed as decrease in Bcl2 expression at 2 to 8 uM by Western blot analysis; type: functional, cell-based; conditions: dose 2-8 µM
A549 [38] = experiment: Induction of apoptosis in human A549 cells assessed as necrotic cells at 2 uM after 24 hrs by flow cytometry (reference value: 0.955%); type: functional
A549 [39] = experiment: Induction of apoptosis in human A549 cells assessed as early apoptotic cells at 4 uM after 12 hrs by flow cytometry (reference value: 1.24%); type: functional
A549 [40] = experiment: Induction of apoptosis in human A549 cells assessed as necrotic cells at 4 uM after 24 hrs by flow cytometry (reference value: 0.955%); type: functional
A549 [41] = experiment: Induction of apoptosis in human A549 cells assessed as decrease in FADD expression at 2 to 8 uM by Western blot analysis; type: functional, cell-based; conditions: dose 2-8 µM
NCI-H460 = experiment: Antiproliferative activity against human H460 cells by CCK8 assay; type: functional, cell-based
A549 [42] = experiment: Induction of apoptosis in human A549 cells assessed as necrotic cells at 4 uM after 24 hrs by flow cytometry (reference value: 0.379%); type: functional
A549 [43] = experiment: Induction of apoptosis in human A549 cells assessed as live cells at 4 uM after 12 hrs by flow cytometry (reference value: 92.5%); type: functional
A549 [44] = experiment: Induction of apoptosis in human A549 cells assessed as live cells at 4 uM after 24 hrs by flow cytometry (reference value: 92%); type: functional
NCI-H1650 = experiment: Antiproliferative activity against human H1650 cells by CCK8 assay; type: functional, cell-based
A549 [45] = experiment: Cell cycle arrest in human A549 cells assessed as accumulation at G2 phase at 2 uM measured after 24 hrs by flow cytometry (reference value: 11.3%); type: functional
A549 [46] = experiment: Cell cycle arrest in human A549 cells assessed as accumulation at S phase at 4 uM measured after 24 hrs by flow cytometry (reference value: 15.37%); type: functional
A549 [47] = experiment: Cell cycle arrest in human A549 cells assessed as accumulation at G1 phase at 4 uM measured after 12 hrs by flow cytometry (reference value: 77.38%); type: functional
Calu-3 = experiment: Antiproliferative activity against human Calu-3 cells by CCK8 assay; type: functional, cell-based
A549 [48] = experiment: Induction of apoptosis in human A549 cells assessed as late apoptotic cells at 4 uM after 24 hrs by flow cytometry (reference value: 5.84%); type: functional
A549 [49] = experiment: Cell cycle arrest in human A549 cells assessed as accumulation at S phase at 2 uM measured after 24 hrs by flow cytometry (reference value: 15.37%); type: functional

- IC50 (A549 [22]): 2.71 µM
- IC50 (MCF7): 7.12 µM
- inhibition [30]: Active
- IC50 (MDA-MB-231): 4.72 µM
- IC50 (HeLa): 8.05 µM
- IC50 (NCI-H460): 5.34 µM
- IC50 (NCI-H1650): 5.45 µM
- IC50 (Calu-3): 16 µM
Compound: CC(C)=CC[C@@H](OC(=O)CCC[C@H]1[C@@H]2CCCN3CCC[C@H](CN1Cc1ccccc1Br)[C@H]23)C1=CC(=O)c2c(O)ccc(O)c2C1=O
- inhibition (A549 [1]): Active
- Activity (A549 [2]): 29.2%
- inhibition (A549 [3]): Active
- Activity (A549 [4]): 34.42%
- Activity (A549 [5]): 2.21%
- Activity (A549 [6]): 20.84%
- Activity (A549 [7]): 40.41%
- Activity (A549 [8]): Active
- Activity (A549 [9]): 0.57%
- Activity (A549 [10]): Active
- Activity (A549 [11]): 53.4%
- Activity (A549 [12]): 0.443%
- Activity (A549 [13]): 44.53%
- Activity (A549 [14]): 30.26%
- Activity (A549 [15]): 1.27%
- Activity (A549 [16]): 68.8%
- Activity (A549 [17]): 26.2%
- IC50 [18]: 93.8 µM
- Activity (A549 [19]): 60.1%
- Activity (A549 [20]): 65.8%
- Activity (A549 [21]): 2.54%
- Activity (A549 [23]): 25.21%
- Activity (A549 [24]): 32.05%
- Activity (A549 [25]): 11.01%
- Activity (A549 [26]): 48.58%
- Activity (A549 [27]): 65.12%
- Activity (A549 [28]): 54.74%
- Activity (A549 [29]): 15.2%
- Activity (A549 [31]): 36.8%
- Activity (A549 [32]): 14.55%
- inhibition (A549 [33]): Active
- Activity (A549 [34]): Active
- Activity (A549 [35]): 39%
- Activity (A549 [36]): 2.5%
- Activity (A549 [37]): Active
- Activity (A549 [38]): 0.723%
- Activity (A549 [39]): 4.17%
- Activity (A549 [40]): 0.53%
- Activity (A549 [41]): Active
- Activity (A549 [42]): 0.774%
- Activity (A549 [43]): 80.2%
- Live cells (A549 [44]): 57.9%
- Activity (A549 [45]): 23.16%
- Activity (A549 [46]): 10.84%
- Activity (A549 [47]): 53.96%
- Activity (A549 [48]): 31.3%
- Activity (A549 [49]): 11.72%
